Test results reported in US12435044B2, “Pyridazinone herbicides and pyridazinone intermediates used to prepare a herbicide” (FMC Corporation, priority 2018, dated 2025).

Tests used:
Assay type in all cases: in vivo
[1] = test system: waterhemp_RES2, (ALS & HPPD resistant common waterhemp, Amaranthus rudis); assay: Test E postemergence greenhouse test
Description: (§1) Seeds of plant species selected from corn (Zea mays), soybean (Glycine max), velvetleaf (Abutilon theophrasti), lambsquarters (Chenopodium album), poinsettia, wild (Euphorbia heterophylla), pigweed, palmer (Amaranthus palmeri), waterhemp (common waterhemp, Amaranthus rudis), surinam grass (Brachiaria decumbens), crabgrass, large (Digitaria sanguinalis), crabgrass, Brazil (Digitaria horizontalis), panicum, fall (Panicum dichotomiflorum), foxtail, giant (Setaria faberii), foxtail, green (Setaria viridis), goosegrass (Eleusine indica), johnsongrass (Sorghum halepense), ragweed (common ragweed, Ambrosia elatior), barnyardgrass (Echinochloa crus-galli), sandbur (southern sandbur, Cenchrus echinatus), arrowleaf sida (Sida rhombifolia), ryegrass, Italian (Lolium multiflorum), dayflower, VA (Virginia (VA) dayflower, Commelina virginica), field bindweed (Convolvulus arvensis), morningglory (Ipomoea coccinea), horseweed (Conyza canadensis), kochia (Kochia scoparia), nutsedge, yellow (Cyperus esculentus) and hairy beggarticks (Bidenspilosa), were planted into a silt loam soil and treated preemergence with test chemicals formulated in a non-phytotoxic solvent mixture which included a surfactant.
(§2) At the same time, plants selected from these crop and weed species and also waterhemp_RES1, (ALS & Triazine resistant common waterhemp, Amaranthus rudis), and waterhemp_RES2, (ALS & HPPD resistant common waterhemp, Amaranthus rudis) were planted in pots containing Redi-Earth® planting medium (Scotts Company, 14111 Scottslawn Road, Marysville, Ohio 43041) comprising spaghnum peat moss, vermiculite, wetting agent and starter nutrients were treated with postemergence applications of test chemicals formulated in the same manner. Plants ranged in height from 2 to 18 cm for postemergence treatments (1- to 4-leaf stage). Treated plants and controls were maintained in a greenhouse for 14 to 21 d, after which time all species were compared to controls and visually evaluated. Plant response ratings, summarized in Table E, are based on a scale of 0 to 100 where 0 is no effect and 100 is complete control. A dash (-) response means no test result.

[2] = test system: waterhemp_RES1, (ALS & Triazine resistant common waterhemp, Amaranthus rudis); assay: Test E postemergence greenhouse test
Description: as §1, §2

[3] = test system: large crabgrass (DIGSA; Digitaria sanguinalis); assay: Test H postemergence, mixtures of Cpd. No. 20 with atrazine or glyphosate
Description: (§3) This test evaluated the effect of mixtures of Cpd. No. 20 with atrazine or glyphosate on several plant species. Seeds of plant species selected from corn (ZEAMD; Zea mays, cv. ‘Pioneer 1184’), soybean (GLXMA; Glycine max, cv. Pioneer 35T58), giant foxtail (SETFA; Setaria faberi), Surinamgrass (BRADC; Brachiaria decumbens), fall panicum (PANDI; Panicum dichotomiflorum), velvetleaf (ABUTH; Abutilon threophrasti), mare's tail (ERICA; Conyza canadensis), barnyardgrass (ECHCG; Echinochloa crus-galli), large crabgrass (DIGSA; Digitaria sanguinalis), palmer amaranth (AMAPA; Amaranthus palmeri), common waterhemp (AMATU; Amaranthus rudis), E. black nightshade (SOLPT; Solanum ptycanthum), and common ragweed (AMBEL; Ambrosia artemisiifolia) were planted in pots containing Redi-Earth® planting medium (Scotts Company, 14111 Scottslawn Road, Marysville, Ohio 43041) comprising spaghnum peat moss, vermiculite, wetting agent and starter nutrients and treated postemergence using test chemicals formulated in a non-phytotoxic solvent mixture which included a surfactant. Plants ranged in height from 2 to 10 cm and were in the one- to two-leaf stage for the postemergence treatment. Treated plants and untreated controls were maintained in a greenhouse for approximately 14 d, after which time all treated plants were compared to untreated controls and visually evaluated for injury. Plant response ratings, summarized in Tables H1 & H2, are based on a 0 to 100 scale where 0 is no effect and 100 is complete control. A dash (-) response means no test result. Test results are presented as a mean of 4 reps.

[4] = test system: Surinamgrass (BRADC; Brachiaria decumbens); assay: as above
Description: as §3

[5] = test system: common ragweed (AMBEL; Ambrosia artemisiifolia); assay: as above
Description: as §3

[6] = test system: E. black nightshade (SOLPT; Solanum ptycanthum); assay: as above
Description: as §3

[7] = test system: palmer amaranth (AMAPA; Amaranthus palmeri); assay: as above
Description: as §3

[8] = test system: fall panicum (PANDI; Panicum dichotomiflorum); assay: as above
Description: as §3

[9] = test system: corn (ZEAMD; Zea mays, cv. ‘Pioneer 1184’); assay: as above
Description: as §3

[10] = test system: mare's tail (ERICA; Conyza canadensis); assay: as above
Description: as §3

[11] = test system: soybean (GLXMA; Glycine max, cv. Pioneer 35T58); assay: as above
Description: as §3

[12] = test system: common waterhemp (AMATU; Amaranthus rudis); assay: as above
Description: as §3

[13] = test system: barnyardgrass (ECHCG; Echinochloa crus-galli); assay: as above
Description: as §3

[14] = test system: velvetleaf (ABUTH; Abutilon threophrasti); assay: as above
Description: as §3

[15] = test system: giant foxtail (SETFA; Setaria faberi); assay: as above
Description: as §3

Cc1ccc2ccc(C)c(-c3c(O)c(Cl)nn(C)c3=O)c2c1 [Cpd. No. 20, 6-chloro-4-(2,7-dimethyl-1-naphthalenyl)-5-hydroxy-2-methyl-3(2H)-pyridazinone]
Plant response rating, Waterhemp_RES2 ([1]; 16 g ai/ha): 15 | Plant response rating, Waterhemp_RES2 ([1]; 31 g ai/ha): 40 | Plant response rating, Waterhemp_RES2 ([1]; 62 g ai/ha): 60 | Plant response rating, Waterhemp_RES2 ([1]; 125 g ai/ha): 70 | Plant response rating, Waterhemp_RES1 ([2]; 16 g ai/ha): 75 | Plant response rating, Waterhemp_RES1 ([2]; 31 g ai/ha): 90 | Plant response rating, Waterhemp_RES1 ([2]; 62 g ai/ha): 80 | Plant response rating, Waterhemp_RES1 ([2]; 125 g ai/ha): 95 | Observed result (plant response rating), DIGSA ([3]; applied alone at 31 g a.i./ha): 34 | Observed result (plant response rating), DIGSA ([3]; applied alone at 62 g a.i./ha): 29 | Observed result (plant response rating), DIGSA ([3]; applied alone at 125 g a.i./ha): 36 | Observed result (plant response rating), BRADC ([4]; applied alone at 31 g a.i./ha): 73 | Observed result (plant response rating), BRADC ([4]; applied alone at 62 g a.i./ha): 84 | Observed result (plant response rating), BRADC ([4]; applied alone at 125 g a.i./ha): 93 | Observed result (plant response rating), AMBEL ([5]; applied alone at 31 g a.i./ha): 89 | Observed result (plant response rating), AMBEL ([5]; applied alone at 62 g a.i./ha): 94 | Observed result (plant response rating), AMBEL ([5]; applied alone at 125 g a.i./ha): 98 | Observed result (plant response rating), SOLPT ([6]; applied alone at 31 g a.i./ha): 86 | Observed result (plant response rating), SOLPT ([6]; applied alone at 62 g a.i./ha): 93 | Observed result (plant response rating), SOLPT ([6]; applied alone at 125 g a.i./ha): 95 | Observed result (plant response rating), AMAPA ([7]; applied alone at 31 g a.i./ha): 10 | Observed result (plant response rating), AMAPA ([7]; applied alone at 62 g a.i./ha): 36 | Observed result (plant response rating), AMAPA ([7]; applied alone at 125 g a.i./ha): 54 | Observed result (plant response rating), PANDI ([8]; applied alone at 31 g a.i./ha): 73 | Observed result (plant response rating), PANDI ([8]; applied alone at 62 g a.i./ha): 84 | Observed result (plant response rating), PANDI ([8]; applied alone at 125 g a.i./ha): 89 | Observed result (plant response rating), ZEAMD ([9]; applied alone at 31 g a.i./ha): 0 | Observed result (plant response rating), ZEAMD ([9]; applied alone at 62 g a.i./ha): 0 | Observed result (plant response rating), ZEAMD ([9]; applied alone at 125 g a.i./ha): 0 | Observed result (plant response rating), ERICA ([10]; applied alone at 31 g a.i./ha): 85 | Observed result (plant response rating), ERICA ([10]; applied alone at 62 g a.i./ha): 85 | Observed result (plant response rating), ERICA ([10]; applied alone at 125 g a.i./ha): 88 | Observed result (plant response rating), GLXMA ([11]; applied alone at 31 g a.i./ha): 30 | Observed result (plant response rating), GLXMA ([11]; applied alone at 62 g a.i./ha): 21 | Observed result (plant response rating), GLXMA ([11]; applied alone at 125 g a.i./ha): 18 | Observed result (plant response rating), AMATU ([12]; applied alone at 31 g a.i./ha): 70 | Observed result (plant response rating), AMATU ([12]; applied alone at 62 g a.i./ha): 80 | Observed result (plant response rating), AMATU ([12]; applied alone at 125 g a.i./ha): 80 | Observed result (plant response rating), ECHCG ([13]; applied alone at 31 g a.i./ha): 100 | Observed result (plant response rating), ECHCG ([13]; applied alone at 62 g a.i./ha): 100 | Observed result (plant response rating), ECHCG ([13]; applied alone at 125 g a.i./ha): 100 | Observed result (plant response rating), ABUTH ([14]; applied alone at 31 g a.i./ha): 76 | Observed result (plant response rating), ABUTH ([14]; applied alone at 62 g a.i./ha): 89 | Observed result (plant response rating), ABUTH ([14]; applied alone at 125 g a.i./ha): 94 | Observed result (plant response rating), SETFA ([15]; applied alone at 31 g a.i./ha): 71 | Observed result (plant response rating), SETFA ([15]; applied alone at 62 g a.i./ha): 79 | Observed result (plant response rating), SETFA ([15]; applied alone at 125 g a.i./ha): 80
